ChEMBL document CHEMBL4190189, “Exploring Jolkinol D Derivatives To Overcome Multidrug Resistance in Cancer” (J Nat Prod, 2017)
One block for each compound: values may come before it.

Tests used:
[1] = molecular target: T1, ATP-dependent translocase ABCB1 (Homo sapiens, UniProt P08183); test: Modulation of human ABCB1 expressed in mouse L5178Y cells assessed as fluorescence activity ratio at 20 uM pretreated for 10 mins followed by rhodamine-123 addition measured after 20 mins by flow cytometry (reference value: 0.87); assay type: cell-based
[2] = Resistance ratio of IC50 for human EPP85-181P cells to IC50 for human EPP85-181RDB cells; assay type: functional
[3] = tested on: L5178Y; test: Cytotoxicity against mouse L5178Y cells transfected with human ABCB1 assessed as reduction in cell viability after 72 hrs by MTT assay; assay type: functional, cell-based
[4] = tested on: L5178Y; test: Cytotoxicity against mouse L5178Y cells assessed as reduction in cell viability after 72 hrs by MTT assay; assay type: cell-based
[5] = molecular target: T1, ATP-dependent translocase ABCB1; test: Modulation of human ABCB1 expressed in mouse L5178Y cells assessed as fluorescence activity ratio at 2 uM pretreated for 10 mins followed by rhodamine-123 addition measured after 20 mins by flow cytometry (reference value: 0.87); assay type: cell-based
[6] = molecular target: T2, ABCB1 (P-glycoprotein) ATPase (Homo sapiens, UniProt P08183); test: Inhibition of human ABCB1 ATPase activity expressed in Sf9 insect cell membranes assessed as reduction in verapamil-stimulated vanadate-sensitive ATPase activity at 1.56 to 25 uM measured after 10 mins by colorimetric method relative to control; settings: Sf9 insect cell membranes expressing human ABCB1, probe verapamil (ATPase stimulator)
[7] = molecular target: T1, ATP-dependent translocase ABCB1; test: Inhibition of human ABCB1 ATPase activity expressed in Sf9 insect cell membranes assessed as reduction in verapamil-stimulated vanadate-sensitive ATPase activity at 50 to 100 uM measured after 10 mins by colorimetric method
[8] = Resistance ratio of IC50 for human EPG85-257P cells to IC50 for human EPG85-257RDB cells; assay type: functional
[9] = molecular target: T1, ATP-dependent translocase ABCB1; test: Inhibition of human ABCB1 expressed in mouse L5178Y cells assessed as potentiation of doxorubicin-induced cytotoxicity by measuring combination index at 10:1 compound to doxorubicin ratio after 48 hrs by MTT assay; assay type: cell-based
[10] = molecular target: T1, ATP-dependent translocase ABCB1; test: Inhibition of human ABCB1 expressed in mouse L5178Y cells assessed as potentiation of doxorubicin-induced cytotoxicity by measuring combination index at 50:1 compound to doxorubicin ratio after 48 hrs by MTT assay; assay type: cell-based
[11] = Resistance ratio of IC50 for human EPP85-181P cells to IC50 for human EPP85-181RNOV cells; assay type: functional
[12] = Cytotoxicity against human EPG85-257RNOV cells assessed as reduction in cell viability after 5 days by SRB assay; assay type: functional, cell-based; settings: 120 h
[13] = Resistance ratio of IC50 for human EPG85-257P cells to IC50 for human EPG85-257RNOV cells; assay type: functional
[14] = molecular target: T1, ATP-dependent translocase ABCB1; test: Inhibition of human ABCB1 expressed in mouse L5178Y cells assessed as potentiation of doxorubicin-induced cytotoxicity by measuring combination index at 400:1 compound to doxorubicin ratio after 48 hrs by MTT assay; assay type: cell-based
[15] = molecular target: T1, ATP-dependent translocase ABCB1; test: Inhibition of human ABCB1 expressed in mouse L5178Y cells assessed as potentiation of doxorubicin-induced cytotoxicity by measuring combination index at 25:1 compound to doxorubicin ratio after 48 hrs by MTT assay; assay type: cell-based
[16] = molecular target: T1, ATP-dependent translocase ABCB1; test: Inhibition of human ABCB1 expressed in mouse L5178Y cells assessed as potentiation of doxorubicin-induced cytotoxicity by measuring combination index at 5:1 compound to doxorubicin ratio after 48 hrs by MTT assay; assay type: cell-based
[17] = molecular target: T2, ABCB1 (P-glycoprotein) ATPase; test: Inhibition of human ABCB1 ATPase activity expressed in Sf9 insect cell membranes assessed as reduction in verapamil-stimulated vanadate-sensitive ATPase activity at 3.13 to […] uM measured after 10 mins by colorimetric method relative to control; settings: Sf9 insect cell membranes expressing human ABCB1, probe verapamil (ATPase stimulator)
[18] = molecular target: T1, ATP-dependent translocase ABCB1; test: Activation of human ABCB1 ATPase activity expressed in Sf9 insect cell membranes assessed as increase in vanadate-sensitive basal ATPase activity at 0.78 to 100 uM measured after 10 mins by colorimetric method relative to control
[19] = molecular target: T2, ABCB1 (P-glycoprotein) ATPase; test: Inhibition of human ABCB1 ATPase activity expressed in Sf9 insect cell membranes assessed as reduction in verapamil-stimulated vanadate-sensitive ATPase activity at 25 to 100 uM measured after 10 mins by colorimetric method relative to control; settings: Sf9 insect cell membranes expressing human ABCB1, probe verapamil (ATPase stimulator)
[20] = Induction of apoptosis in human EPG85-257RNOV cells at 30 uM after 72 hrs by annexin-V/propidium iodide staining based flow cytometric method relative to control; assay type: functional
[21] = Induction of apoptosis in human EPG85-257P cells at 30 uM after 72 hrs by annexin-V/propidium iodide staining based flow cytometric method relative to control; assay type: cell-based
[22] = Induction of apoptosis in human EPP85-181RNOV cells assessed as caspase-3 activation at 30 uM after 72 hrs by flow cytometric method relative to control; assay type: functional
[23] = Induction of apoptosis in human EPP85-181RDB cells at 30 uM after 72 hrs by annexin-V/propidium iodide staining based flow cytometric method relative to control; assay type: functional
[24] = Induction of apoptosis in human EPG85-257RDB cells assessed as caspase-3 activation at 30 uM after 72 hrs by flow cytometric method relative to control; assay type: functional
[25] = Induction of apoptosis in human EPP85-181RNOV cells at 30 uM after 72 hrs by annexin-V/propidium iodide staining based flow cytometric method relative to control; assay type: functional
[26] = Induction of apoptosis in human EPG85-257P cells assessed as caspase-3 activation at 30 uM after 72 hrs by flow cytometric method relative to control; assay type: cell-based; settings: EPG85-257P cells, read-out: FC
[27] = Induction of apoptosis in human EPG85-257RNOV cells assessed as caspase-3 activation at 30 uM after 72 hrs by flow cytometric method relative to control; assay type: functional
[28] = Induction of apoptosis in human EPG85-257RDB cells at 30 uM after 72 hrs by annexin-V/propidium iodide staining based flow cytometric method relative to control; assay type: functional
[29] = molecular target: T1, ATP-dependent translocase ABCB1; test: Inhibition of human ABCB1 expressed in mouse L5178Y cells assessed as potentiation of doxorubicin-induced cytotoxicity by measuring combination index at 100:1 compound to doxorubicin ratio after 48 hrs by MTT assay; assay type: cell-based
[30] = Cytotoxicity against human EPP85-181RDB cells assessed as reduction in cell viability after 5 days by SRB assay; assay type: functional, cell-based; settings: 120 h
[31] = Cytotoxicity against human EPP85-181RNOV cells assessed as reduction in cell viability after 5 days by SRB assay; assay type: functional, cell-based; settings: 120 h
[32] = Cytotoxicity against human EPP85-181P cells assessed as reduction in cell viability after 5 days by SRB assay; assay type: cell-based; settings: 120 h
[33] = molecular target: T1, ATP-dependent translocase ABCB1; test: Inhibition of human ABCB1 expressed in mouse L5178Y cells assessed as potentiation of doxorubicin-induced cytotoxicity by measuring combination index at 15:1 compound to doxorubicin ratio after 48 hrs by MTT assay; assay type: cell-based

T1 sequence (P08183 whole entry): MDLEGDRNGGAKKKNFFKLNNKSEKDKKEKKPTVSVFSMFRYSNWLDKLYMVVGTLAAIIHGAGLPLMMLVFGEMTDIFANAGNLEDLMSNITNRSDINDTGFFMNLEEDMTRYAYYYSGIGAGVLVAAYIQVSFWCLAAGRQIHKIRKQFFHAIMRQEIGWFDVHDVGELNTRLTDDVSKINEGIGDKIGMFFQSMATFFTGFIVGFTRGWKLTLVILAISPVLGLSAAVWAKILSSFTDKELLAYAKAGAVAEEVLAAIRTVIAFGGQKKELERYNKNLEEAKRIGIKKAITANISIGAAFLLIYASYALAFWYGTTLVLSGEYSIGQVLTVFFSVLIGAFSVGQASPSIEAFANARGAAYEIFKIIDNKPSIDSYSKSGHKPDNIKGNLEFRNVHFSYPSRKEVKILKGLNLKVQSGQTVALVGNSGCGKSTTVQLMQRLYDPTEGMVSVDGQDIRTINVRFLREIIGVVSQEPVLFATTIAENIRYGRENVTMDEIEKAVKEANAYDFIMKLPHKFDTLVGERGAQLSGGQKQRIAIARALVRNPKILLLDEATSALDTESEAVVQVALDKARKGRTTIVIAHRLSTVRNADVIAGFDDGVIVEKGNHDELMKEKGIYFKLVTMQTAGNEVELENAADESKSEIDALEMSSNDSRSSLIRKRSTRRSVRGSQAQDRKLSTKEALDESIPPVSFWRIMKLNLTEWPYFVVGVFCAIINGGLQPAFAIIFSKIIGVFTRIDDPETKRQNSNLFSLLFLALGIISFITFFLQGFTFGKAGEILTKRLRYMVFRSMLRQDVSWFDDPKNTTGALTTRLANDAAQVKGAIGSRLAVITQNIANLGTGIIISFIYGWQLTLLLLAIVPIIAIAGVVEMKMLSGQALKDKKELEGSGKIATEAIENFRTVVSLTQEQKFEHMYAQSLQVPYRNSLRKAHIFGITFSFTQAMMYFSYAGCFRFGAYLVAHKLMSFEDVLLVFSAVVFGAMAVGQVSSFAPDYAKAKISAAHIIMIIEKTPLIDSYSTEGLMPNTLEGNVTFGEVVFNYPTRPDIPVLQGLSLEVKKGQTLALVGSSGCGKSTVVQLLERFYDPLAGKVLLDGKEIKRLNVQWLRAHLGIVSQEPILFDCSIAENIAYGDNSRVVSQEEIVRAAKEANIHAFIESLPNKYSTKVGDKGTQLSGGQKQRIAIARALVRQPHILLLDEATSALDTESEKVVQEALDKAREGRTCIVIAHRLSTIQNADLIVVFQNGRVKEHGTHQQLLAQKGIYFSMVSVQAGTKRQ
T2 sequence (P08183 whole entry): as above

SMILES: COc1cccc(C(=O)O[C@H]2[C@@H](C)C[C@]3(O)C(=O)/C(C)=C/[C@@H]4[C@H](CC/C(C)=C\[C@@H]23)C4(C)C)c1
Ratio [1]: 32.8 | IC50 [3]: > 19 µM | IC50 [4]: > 19 µM | Ratio [5]: 12 | CI [10]: 0.38

SMILES: C/C1=C/[C@H]2[C@@H](OC(=O)c3ccc(-c4ccccc4)cc3)[C@@H](C)C[C@]2(O)C(=O)/C(C)=C/[C@@H]2[C@H](CC1)C2(C)C
Ratio [1]: 19 | Ratio IC50 [11]: 0.4 | Ratio IC50 [2]: 0.4 | IC50 [3]: > 80 µM | IC50 [4]: > 19 µM | Ratio [5]: 4.8

SMILES: CC(=O)O[C@]12C[C@H](C)[C@H](OC(=O)c3cccc(C)c3)[C@@H]1/C=C(/C)CC[C@H]1[C@@H](/C=C(\C)C2=O)C1(C)C
Ratio [1]: 18 | IC50 [12]: < 10 µM | IC50 [3]: > 80 µM | IC50 [4]: > 19 µM | Ratio [5]: 2.2

SMILES: CC(=O)O[C@]12C[C@H](C)[C@H](O)[C@@H]1/C=C(\C)CC[C@H]1[C@@H](/C=C(\C)C2=O)C1(C)C [JOLKINOL D]
inhibition at 10 min [17]: 14 to 40% | Activity [18]: 66 to 87% | inhibition at 10 min [19]: 9 to 33%

SMILES: CC(=O)O[C@]12C[C@H](C)[C@H](OC(=O)c3cccc(C(F)(F)F)c3)[C@@H]1/C=C(/C)CC[C@H]1[C@@H](/C=C(\C)C2=O)C1(C)C
fold change (FC) [20]: 4 | fold change (FC) [21]: 4 | fold change (FC) [22]: 12 | fold change (FC) [23]: 3.5 | fold change (FC) [24]: 6 - 9 | fold change (FC) [25]: 4.5 | fold induction at 72 h, 30 µM [26]: 6 to 9 | fold change (FC) [27]: 6 - 9 | fold change (FC) [28]: 6

SMILES: CC(=O)O[C@]12C[C@H](C)[C@H](OC(=O)c3ccc(-c4ccccc4)cc3)[C@@H]1/C=C(/C)CC[C@H]1[C@@H](/C=C(\C)C2=O)C1(C)C
Ratio [1]: 37.2 | CI [29]: 0.32 | IC50 [3]: > 19 µM | IC50 [4]: > 19 µM | Ratio [5]: 11.6 | Ratio IC50 [13]: 0.2

Further lines, with some results ahead:

Ratio [1]: 9.9 | Ratio [5]: 3
SMILES: C/C1=C/[C@H]2[C@@H](OC(=O)c3ccc(C(F)(F)F)cc3)[C@@H](C)C[C@]2(O)C(=O)/C(C)=C/[C@@H]2[C@H](CC1)C2(C)C
Ratio IC50 [2]: 0.4 | IC50 [3]: > 80 µM | IC50 [4]: > 19 µM

Ratio [1]: 39.6 | inhibition at 10 min [6]: 100% | inhibition (INH) [7]: Active | Ratio [5]: 33.3
SMILES: COc1ccccc1C(=O)O[C@H]1[C@@H](C)C[C@]2(OC(C)=O)C(=O)/C(C)=C/[C@@H]3[C@H](CC/C(C)=C\[C@@H]12)C3(C)C
Ratio IC50 [8]: 0.2 | CI [9]: 0.09 | IC50 [3]: > 19 µM | IC50 [4]: > 19 µM

Ratio [1]: 25.4 | Ratio [5]: 9.4
SMILES: CC(=O)O[C@]12C[C@H](C)[C@H](OC(=O)c3ccc(C(F)(F)F)cc3)[C@@H]1/C=C(/C)CC[C@H]1[C@@H](/C=C(\C)C2=O)C1(C)C
Ratio IC50 [8]: 0.4 | IC50 [12]: < 10 µM | IC50 [3]: > 80 µM | IC50 [4]: > 19 µM | Ratio IC50 [13]: 0.2

Ratio [1]: 31.9 | Ratio [5]: 11.9
SMILES: CC(=O)O[C@]12C[C@H](C)[C@H](OC(=O)c3ccc4ccccc4c3)[C@@H]1/C=C(/C)CC[C@H]1[C@@H](/C=C(\C)C2=O)C1(C)C
IC50 [3]: > 19 µM | IC50 [4]: > 19 µM | CI [14]: 0.06

Ratio [1]: 36.4 | Ratio [5]: 26.1
SMILES: COc1cccc(C(=O)O[C@H]2[C@@H](C)C[C@]3(OC(C)=O)C(=O)/C(C)=C/[C@@H]4[C@H](CC/C(C)=C\[C@@H]23)C4(C)C)c1
CI [15]: 0.84 | Ratio IC50 [8]: 0.3 | IC50 [3]: > 19 µM | IC50 [4]: > 19 µM

Ratio [1]: 18.7 | Ratio [5]: 3.1
SMILES: CCOC(=O)O[C@H]1[C@@H](C)C[C@]2(OC(C)=O)C(=O)/C(C)=C/[C@@H]3[C@H](CC/C(C)=C\[C@@H]12)C3(C)C
Ratio IC50 [8]: 0.4 | CI [16]: 1.22 | IC50 [12]: < 10 µM | IC50 [3]: > 19 µM | IC50 [4]: > 19 µM

Ratio [1]: 41.5 | Ratio [5]: 28.6
SMILES: CC(=O)O[C@]12C[C@H](C)[C@H](OC(=O)/C=C/c3ccccc3)[C@@H]1/C=C(/C)CC[C@H]1[C@@H](/C=C(\C)C2=O)C1(C)C
Ratio IC50 [8]: 0.2 | IC50 [3]: > 19 µM | IC50 [4]: > 19 µM | CI [10]: 1.13

Ratio [1]: 29 | Ratio [5]: 12.6
SMILES: CC(=O)O[C@]12C[C@H](C)[C@H](OC(=O)C34CC5CC(CC(C5)C3)C4)[C@@H]1/C=C(/C)CC[C@H]1[C@@H](/C=C(\C)C2=O)C1(C)C
fold change (FC) [23]: 17 | IC50 [30]: 5.86 µM | IC50 [31]: 6.63 µM | IC50 [12]: < 10 µM | IC50 [32]: 8.61 µM | fold change (FC) [25]: 5 | CI [33]: 1.11 | IC50 [3]: > 19 µM | IC50 [4]: > 19 µM
